Laboratory results reported in ChEMBL document CHEMBL1201862, “PubChem BioAssay data set” (2004).
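Growth conditions: 96-well plates. Treatment: test compound, 48 hours, 5 concentrations. Analysis: linear interpolation between bracketing concentrations; unreached endpoints set to highest concentration. Abbreviation: GI50, concentration required for 50% inhibition of growth.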 Activity calls are given as the source filed them. No stated cut-off is given here; in the data, active = GI50 up to about 1.1 µM and inactive = higher.

Legend:
Assay in all cases: growth of human tumour cells (NCI), 48 h
U-251 = test system: U-251
MOLT-4 = test system: MOLT-4
HT-29 = test system: HT-29
A549 = test system: A549
RPMI-8226 = test system: RPMI-8226
SK-MEL-5 = test system: SK-MEL-5
K562 = test system: K562
SN12C = test system: SN12C
CCRF-CEM = test system: CCRF-CEM
NCI-H226 = test system: NCI-H226
SK-OV-3 = test system: SK-OV-3
HCT-116 = test system: HCT-116
CAKI-1 = test system: CAKI-1
SK-MEL-28 = test system: SK-MEL-28
HCC 2998 = test system: HCC 2998

| SMILES | GI50 (U-251) | GI50 (MOLT-4) | GI50 (HT-29) | GI50 (A549) | GI50 (RPMI-8226) | GI50 (SK-MEL-5) | GI50 (K562) | GI50 (SN12C) | GI50 (CCRF-CEM) | GI50 (NCI-H226) | GI50 (SK-OV-3) | GI50 (HCT-116) | GI50 (CAKI-1) | GI50 (SK-MEL-28) | GI50 (HCC 2998) |
| --- | --- | --- | --- | --- | --- | --- | --- | --- | --- | --- | --- | --- | --- | --- | --- |
| COC(=O)c1c/c(=N\NC(=O)CC(=O)Nc2ccc(C)cc2)c2ccccc2o1 | > 100 µM (inactive) | > 100 µM (inactive) | > 100 µM (inactive) | > 100 µM (inactive) | > 100 µM (inactive) | > 100 µM (inactive) | > 100 µM (inactive) | > 100 µM (inactive) | > 100 µM (inactive) | > 100 µM (inactive) | > 100 µM (inactive) | > 100 µM (inactive) | > 100 µM (inactive) | > 100 µM (inactive) |  |
| O=C1Nc2cc(Cl)ccc2N=CC1NC(=O)C(c1ccccc1)c1ccccc1Cl (stereo not drawn) | > 100 µM (inactive) | > 100 µM (inactive) | > 100 µM (inactive) | > 100 µM (inactive) | > 100 µM (inactive) | > 100 µM (inactive) | > 100 µM (inactive) | > 100 µM (inactive) | > 100 µM (inactive) | > 100 µM (inactive) | > 100 µM (inactive) | > 100 µM (inactive) | > 100 µM (inactive) | > 100 µM (inactive) | > 100 µM (inactive) |
| CCN(CC)CC(C(=O)Nc1c(C)cccc1C)/C(C)=N\NC(=O)C[N+](C)(C)C (stereo not drawn) | > 100 µM (inactive) | > 100 µM (inactive) | > 100 µM (inactive) | > 100 µM (inactive) | > 100 µM (inactive) | > 100 µM (inactive) | > 100 µM (inactive) | > 100 µM (inactive) |  | > 100 µM (inactive) | > 100 µM (inactive) | > 100 µM (inactive) | > 100 µM (inactive) | > 100 µM (inactive) | > 100 µM (inactive) |
| O=C(Cc1ccccc1)N/N=C(/c1nc2ccc([N+](=O)[O-])cc2nc1O)C(O)c1ccco1 (stereo not drawn) | > 100 µM (inactive) | > 100 µM (inactive) | > 100 µM (inactive) | > 100 µM (inactive) | > 100 µM (inactive) | 66.4 µM (inactive) | 44.4 µM (inactive) | > 100 µM (inactive) | 43.7 µM (inactive) | > 100 µM (inactive) | > 100 µM (inactive) | > 100 µM (inactive) | 60.8 µM (inactive) | > 100 µM (inactive) | > 100 µM (inactive) |
| O=C(Nc1ccc(Cl)c(Cl)c1)C(=O)Nn1c(S)nc2ccccc2c1=O | > 100 µM (inactive) | > 100 µM (inactive) | > 100 µM (inactive) | > 100 µM (inactive) | > 100 µM (inactive) | > 100 µM (inactive) | > 100 µM (inactive) | > 100 µM (inactive) | > 100 µM (inactive) | > 100 µM (inactive) | > 100 µM (inactive) | > 100 µM (inactive) | > 100 µM (inactive) | > 100 µM (inactive) | > 100 µM (inactive) |
| CC1NOC(=O)C1/N=N/c1ccc(Cl)cc1Cl (stereo not drawn) | 18.5 µM (inactive) | 19.6 µM (inactive) | 32.8 µM (inactive) | 23 µM (inactive) |  | 25.8 µM (inactive) | 25.2 µM (inactive) | 21.6 µM (inactive) | 30.9 µM (inactive) | 25.4 µM (inactive) | 29.3 µM (inactive) | 21.9 µM (inactive) | 24.4 µM (inactive) | 38.9 µM (inactive) | 29.9 µM (inactive) |
| N/N=C(\CC1OC(=O)c2ccccc21)c1ccco1 (stereo not drawn) |  | > 100 µM (inactive) | > 100 µM (inactive) | > 100 µM (inactive) |  | > 100 µM (inactive) | 50 µM (inactive) |  | 59.2 µM (inactive) | > 100 µM (inactive) | > 100 µM (inactive) | > 100 µM (inactive) | > 100 µM (inactive) | > 100 µM (inactive) | > 100 µM (inactive) |
| CC(C)(C)c1cc(Oc2ccc(C#N)c(C#N)c2)cc(C(C)(C)C)c1 | 85.5 µM (inactive) | > 100 µM (inactive) | > 100 µM (inactive) | > 100 µM (inactive) | > 100 µM (inactive) | > 100 µM (inactive) | 83.2 µM (inactive) | > 100 µM (inactive) | 38.3 µM (inactive) | > 100 µM (inactive) | > 100 µM (inactive) | 68.1 µM (inactive) | > 100 µM (inactive) | > 100 µM (inactive) | > 100 µM (inactive) |
| CC(C)C1CO[C@]2(C)CCC(=O)N12 (stereo partly drawn) | > 100 µM (inactive) | > 100 µM (inactive) | > 100 µM (inactive) | > 100 µM (inactive) | > 100 µM (inactive) | > 100 µM (inactive) | > 100 µM (inactive) | > 100 µM (inactive) | > 100 µM (inactive) | > 100 µM (inactive) | > 100 µM (inactive) | > 100 µM (inactive) | > 100 µM (inactive) | > 100 µM (inactive) |  |
| Cn1c(=O)c2[nH]cnc2n(CC(N)=O)c1=O | > 100 µM (inactive) | > 100 µM (inactive) | > 100 µM (inactive) | > 100 µM (inactive) | > 100 µM (inactive) | > 100 µM (inactive) | > 100 µM (inactive) | > 100 µM (inactive) | > 100 µM (inactive) |  | > 100 µM (inactive) | > 100 µM (inactive) | > 100 µM (inactive) | > 100 µM (inactive) |  |
| O=C(CO[N+](=O)[O-])OCC(=O)c1ccccc1 | > 100 µM (inactive) | > 100 µM (inactive) | > 100 µM (inactive) | > 100 µM (inactive) | > 100 µM (inactive) |  | > 100 µM (inactive) | > 100 µM (inactive) | > 100 µM (inactive) | > 100 µM (inactive) | > 100 µM (inactive) | > 100 µM (inactive) | > 100 µM (inactive) | > 100 µM (inactive) | > 100 µM (inactive) |
| CN1CCN(CCNc2ccc(CO)c3sc4ccccc4c(=O)c23)CC1 | 3.11 µM (inactive) | 3.15 µM (inactive) | 4.15 µM (inactive) | 10.5 µM (inactive) | 10.9 µM (inactive) | 12.7 µM (inactive) | 3.84 µM (inactive) |  | 4.34 µM (inactive) | 13.2 µM (inactive) |  | 5.69 µM (inactive) | 11.9 µM (inactive) | 15.5 µM (inactive) | 6.87 µM (inactive) |
| COc1ccc(-c2cc(Cc3cccs3)c(=O)[nH]n2)cc1 | > 100 µM (inactive) |  | 96.2 µM (inactive) | 57 µM (inactive) |  | 19 µM (inactive) |  | > 100 µM (inactive) |  | > 100 µM (inactive) | > 100 µM (inactive) | > 100 µM (inactive) |  | 95.1 µM (inactive) | > 100 µM (inactive) |
| O=C(CC(=O)Nc1cccc(Cl)c1)NNCC(=O)Nc1nnc(-c2ccccc2)s1 | 34 µM (inactive) | 34.9 µM (inactive) | 80 µM (inactive) | > 100 µM (inactive) | 14.2 µM (inactive) | 45.8 µM (inactive) | 27.4 µM (inactive) | > 100 µM (inactive) |  | 22.9 µM (inactive) | 26.4 µM (inactive) | 24.8 µM (inactive) | > 100 µM (inactive) | > 100 µM (inactive) | > 100 µM (inactive) |
| COc1ccc2c(CCNS(=O)(=O)c3ccccc3)c(C(C)=O)[nH]c2c1[N+](=O)[O-] | > 100 µM (inactive) | > 100 µM (inactive) | > 100 µM (inactive) | > 100 µM (inactive) | > 100 µM (inactive) |  | > 100 µM (inactive) | > 100 µM (inactive) | > 100 µM (inactive) | 43.3 µM (inactive) |  | > 100 µM (inactive) | > 10 µM (inactive) | > 10 µM (inactive) | > 100 µM (inactive) |
| COc1ccc(-c2cc(-c3ccccc3)c(C#N)c(=O)[nH]2)cc1 | > 100 µM (inactive) | > 100 µM (inactive) | > 100 µM (inactive) | > 100 µM (inactive) | > 100 µM (inactive) | > 100 µM (inactive) | > 100 µM (inactive) | > 100 µM (inactive) | > 100 µM (inactive) | > 100 µM (inactive) | > 100 µM (inactive) | > 100 µM (inactive) |  | > 100 µM (inactive) | > 100 µM (inactive) |
| Nn1c(S)nnc1NNC(=O)C(=O)Nc1cc(Cl)c(Cl)cc1Cl | > 100 µM (inactive) |  | > 100 µM (inactive) | > 100 µM (inactive) |  | > 100 µM (inactive) | 0.012 µM (active) | > 100 µM (inactive) | 20 µM (inactive) | > 100 µM (inactive) | > 100 µM (inactive) | > 100 µM (inactive) | > 100 µM (inactive) | > 100 µM (inactive) | > 100 µM (inactive) |
| CCOc1ccc(NC(=O)/C(Cc2nc3ccccc3nc2O)=N\O)cc1 | > 100 µM (inactive) | > 100 µM (inactive) |  | > 100 µM (inactive) | > 100 µM (inactive) | > 100 µM (inactive) | > 100 µM (inactive) |  | > 100 µM (inactive) |  | > 100 µM (inactive) | > 100 µM (inactive) | > 100 µM (inactive) | > 100 µM (inactive) | > 100 µM (inactive) |
| [N-]=[N+]=CC(=O)C1(C(=O)C=[N+]=[N-])CC1 | > 100 µM (inactive) | > 100 µM (inactive) | > 100 µM (inactive) | > 100 µM (inactive) |  | > 100 µM (inactive) | > 100 µM (inactive) | > 100 µM (inactive) | > 100 µM (inactive) | > 100 µM (inactive) | > 100 µM (inactive) | > 100 µM (inactive) |  | > 100 µM (inactive) | > 100 µM (inactive) |
| CCOC(=O)C1S/C(=N\c2ccc(Cl)cc2)N=C1C (stereo not drawn) | 18.8 µM (inactive) | 16.7 µM (inactive) | 17.1 µM (inactive) | 17.8 µM (inactive) | 27.9 µM (inactive) |  | 19.4 µM (inactive) | 17.5 µM (inactive) |  | 25.6 µM (inactive) |  | 16.6 µM (inactive) |  | 20.5 µM (inactive) | 17.7 µM (inactive) |
